SMILES strings stand for the structures. Counter-ions that a name gives are not always drawn.

In assay [1] the test system is RT112/84 cells (FGFR3-fusion). The assay is described as follows: RT112/84 cancer cell line cell viability assay (CellTiter-Glo 2.0). The format is cell-based. Conditions: Homo sapiens, 72 hours, Cell Titer Glo 2.0. The procedure, abridged:
(§1)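 RT112/84, UM-UC-14 and KG-1 cells (10,000/well, RPMI1640 with 10% FBS) were treated with a 9-dose, 10-fold series starting at 30 μM, in triplicate, for 72 h at 37 °C. ATP was read by CellTiter-Glo 2.0 luminescence relative to DMSO controls, and IC50 was fitted with a 4-parameter sigmoidal model.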
For orientation: Cellular ATP, detected with luciferase, serves as a proxy for viable cell number.

Assay [2] relates to KG-1 cells (FGFR1-fusion). The assay is described as follows: KG-1 cancer cell line cell viability assay (CellTiter-Glo 2.0). The format is cell-based. Conditions: Homo sapiens, 72 hours, Cell Titer Glo 2.0. The procedure, abridged:
as §1

Assay [3] has as its system UM-UC-14 cells (FGFR3(S249C)). The assay is described as follows: UM-UC-14 cancer cell line cell viability assay (CellTiter-Glo 2.0). The format is cell-based. Conditions: UMUC14, 72 hours, Cell Titer Glo 2.0. An excerpt: Experimental Purpose: To detect the change of intracellular ATP by Cell Titer-Glo® and to evaluate the inhibitory effect of the compounds on cancer cell lines by determining the in vitro IC50 value of the compounds.
Cell Titer-Glo® 2.0 Luminescent cell viability assay reagent was purchased from Promega (Madison, WI). RT112/84 and KG-1 cell lines were purchased from American Type Culture Collection (Manassas, VA). UM-UC-14 cell line was purchased from Sigma (St. Louis, MO). RT112/84, UM-UC-14, and KG-1 cells were cultured in RPMI1640 media supplemented with 10% fetal bovine serum. Cultures were maintained at 37° C. in a humidified atmosphere of 5% C02 and 95% air.
Cell Viability Assay Procedure: Cells were plated in 96-well clear bottom/white plates (Corning #3903) at 10,000 cells/well in 100 μl of media, incubated overnight. The next day, test compound DMSO stock solutions were made at 10 mM and 2 μM final concentration. Compounds were then added to cells in a 9-dose, 10-fold dilution series starting at 30 μM with an HP 300e Digital Dispenser (each dose was applied in triplicate). DMSO was backfilled to each well up to 301 nL total volume of test compound+DMSO, and a total of 301 nL DMSO was added to a control/no test compound well in triplicate. The cells in cell culture plates were incubated with the compounds at 37° C. and 5% C02 for 72 hours. Then 50 μl of Cell Titer Glo 2.0 reagent was added to each well of the cell culture plates. The contents were covered from light and mixed on an orbital shaker at room temperature for 10 min. Luminescence was recorded by a Synergy H1 Microplate Reader (Biotek, Winooski, VT). Cells were assessed as a percentage of DMSO only treated control cells. Curves were plotted and IC50 values were calculated using the GraphPad Prism 8 program based on a sigmoidal dose-response equation (4 parameter).

The target in assay [4] is FGFR4 (Homo sapiens (Human), UniProt P22455). The assay is described as follows: Kinase assay, binding constants (Kd), kinase-tagged T7 phage, qPCR. The gist of the method: (§2)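 Competition binding: T7 phage-tagged kinase + biotin-ligand beads + compound (11 pts, 3-fold, 0.9% DMSO). Elution 30 min RT with free ligand; qPCR quantitation. Kd via Hill fit, slope −1.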
Background: Real-time PCR tracks product formation cycle by cycle.

Assay [5] deals with FGFR2 (Homo sapiens (Human), UniProt P21802). Described as above. The gist of the method: as §2
Assay [6] concerns the target FGFR3 (V555M) (Homo sapiens (Human), UniProt P22607, V555M). The description is as above. Conditions: V555M mutant. The gist of the method:
as §2

The target in assay [7] is FGFR3 (Homo sapiens (Human), UniProt P22607). Described as above. The gist of the method:
as §2

The target of assay [8] is FGFR1 (Homo sapiens (Human), UniProt P11362). The description is as above. The gist of the method:
as §2

Assay [9] addresses FGFR1-BCR Ba/F3 cells (Homo sapiens, UniProt P11362). The assay is described as follows: Ba/F3 cell viability assay (CellTiter-Glo 2.0), FGFR1-BCR Ba/F3. The assay is classed as cell-based. Conditions: read-out: Ba/F3 Cells FGFR1 (IC50 nM), 48 hours, Cell Titer Glo 2.0. The gist of the method:
(§3)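 IL3-independent Ba/F3 lines driven by FGFR1-BCR or FGFR3-BAIAP2L1 fusions, in RPMI1640/10% FBS. 9-dose 10-fold series from 30 μM, triplicate, 48 h at 37 °C; viability by CellTiter-Glo 2.0 ATP luminescence relative to DMSO control, IC50 from 4-parameter sigmoidal fit.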

The target in assay [10] is FGFR3-BAIAP2L1 Ba/F3 cells (Homo sapiens, UniProt P22607). The assay is described as follows: Ba/F3 cell viability assay (CellTiter-Glo 2.0), FGFR3-BAIAP2L1 Ba/F3. The format is cell-based. Conditions: for Ba/F3 FGFR1/FGFR3 Selectivity: FGFR3 > FGFR1 selectivity ratio in Ba/F3 FGFR fusion cell based assays; for IC50: read-out: Ba/F3 Cells FGFR3 (IC50 nM), FGFR3-BAIAP2L1 Ba/F3 cells, 48 hours, Cell Titer Glo 2.0. The gist of the method:
as §3

Sequence of FGFR2 (P21802 22-821): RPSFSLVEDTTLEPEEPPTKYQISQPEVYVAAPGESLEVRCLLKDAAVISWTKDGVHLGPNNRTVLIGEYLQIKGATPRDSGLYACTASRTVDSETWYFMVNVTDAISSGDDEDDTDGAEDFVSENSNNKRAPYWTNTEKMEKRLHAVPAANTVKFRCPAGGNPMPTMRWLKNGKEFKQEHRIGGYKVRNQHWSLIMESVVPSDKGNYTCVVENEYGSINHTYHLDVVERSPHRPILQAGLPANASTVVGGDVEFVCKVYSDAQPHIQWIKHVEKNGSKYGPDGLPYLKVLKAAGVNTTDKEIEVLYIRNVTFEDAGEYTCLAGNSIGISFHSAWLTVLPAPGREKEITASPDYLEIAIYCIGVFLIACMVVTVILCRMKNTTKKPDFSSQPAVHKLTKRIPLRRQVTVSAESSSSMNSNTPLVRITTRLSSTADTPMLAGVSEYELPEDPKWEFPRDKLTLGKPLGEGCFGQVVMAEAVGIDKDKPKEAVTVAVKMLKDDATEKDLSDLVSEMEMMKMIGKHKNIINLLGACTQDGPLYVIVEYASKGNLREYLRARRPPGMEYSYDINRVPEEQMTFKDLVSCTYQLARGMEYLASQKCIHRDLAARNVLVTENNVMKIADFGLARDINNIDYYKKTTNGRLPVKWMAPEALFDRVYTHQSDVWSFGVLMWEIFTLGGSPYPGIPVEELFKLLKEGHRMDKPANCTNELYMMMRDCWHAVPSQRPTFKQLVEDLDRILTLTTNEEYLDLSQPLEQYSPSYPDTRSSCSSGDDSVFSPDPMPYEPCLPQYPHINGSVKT
Sequence of FGFR1-BCR Ba/F3 cells (P11362 22-822 limits assumed, change not shown): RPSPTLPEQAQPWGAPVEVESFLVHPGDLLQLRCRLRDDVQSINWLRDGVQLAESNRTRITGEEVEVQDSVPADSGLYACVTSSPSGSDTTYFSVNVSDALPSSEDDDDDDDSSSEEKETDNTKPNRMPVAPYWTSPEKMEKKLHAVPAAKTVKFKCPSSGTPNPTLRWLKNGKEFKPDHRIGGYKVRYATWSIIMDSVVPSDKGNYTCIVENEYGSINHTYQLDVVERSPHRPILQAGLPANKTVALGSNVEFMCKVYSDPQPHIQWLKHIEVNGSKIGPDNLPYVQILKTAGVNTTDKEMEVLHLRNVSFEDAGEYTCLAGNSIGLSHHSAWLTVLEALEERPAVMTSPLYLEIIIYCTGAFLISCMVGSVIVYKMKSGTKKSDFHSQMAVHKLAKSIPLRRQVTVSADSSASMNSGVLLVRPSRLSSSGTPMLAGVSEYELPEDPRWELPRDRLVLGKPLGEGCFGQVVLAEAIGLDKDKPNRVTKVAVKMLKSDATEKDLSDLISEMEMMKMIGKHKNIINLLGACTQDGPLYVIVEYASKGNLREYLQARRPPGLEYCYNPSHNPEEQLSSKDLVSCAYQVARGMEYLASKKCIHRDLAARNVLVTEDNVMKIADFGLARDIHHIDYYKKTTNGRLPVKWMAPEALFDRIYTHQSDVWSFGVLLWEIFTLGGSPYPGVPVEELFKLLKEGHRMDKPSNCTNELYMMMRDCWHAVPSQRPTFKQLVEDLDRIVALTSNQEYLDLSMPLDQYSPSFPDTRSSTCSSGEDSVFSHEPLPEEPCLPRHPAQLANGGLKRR
Sequence of FGFR1 (P11362 22-822): as the sequence (P11362 22-822 limits assumed, change not shown) above
Sequence of FGFR3 (P22607 23-806): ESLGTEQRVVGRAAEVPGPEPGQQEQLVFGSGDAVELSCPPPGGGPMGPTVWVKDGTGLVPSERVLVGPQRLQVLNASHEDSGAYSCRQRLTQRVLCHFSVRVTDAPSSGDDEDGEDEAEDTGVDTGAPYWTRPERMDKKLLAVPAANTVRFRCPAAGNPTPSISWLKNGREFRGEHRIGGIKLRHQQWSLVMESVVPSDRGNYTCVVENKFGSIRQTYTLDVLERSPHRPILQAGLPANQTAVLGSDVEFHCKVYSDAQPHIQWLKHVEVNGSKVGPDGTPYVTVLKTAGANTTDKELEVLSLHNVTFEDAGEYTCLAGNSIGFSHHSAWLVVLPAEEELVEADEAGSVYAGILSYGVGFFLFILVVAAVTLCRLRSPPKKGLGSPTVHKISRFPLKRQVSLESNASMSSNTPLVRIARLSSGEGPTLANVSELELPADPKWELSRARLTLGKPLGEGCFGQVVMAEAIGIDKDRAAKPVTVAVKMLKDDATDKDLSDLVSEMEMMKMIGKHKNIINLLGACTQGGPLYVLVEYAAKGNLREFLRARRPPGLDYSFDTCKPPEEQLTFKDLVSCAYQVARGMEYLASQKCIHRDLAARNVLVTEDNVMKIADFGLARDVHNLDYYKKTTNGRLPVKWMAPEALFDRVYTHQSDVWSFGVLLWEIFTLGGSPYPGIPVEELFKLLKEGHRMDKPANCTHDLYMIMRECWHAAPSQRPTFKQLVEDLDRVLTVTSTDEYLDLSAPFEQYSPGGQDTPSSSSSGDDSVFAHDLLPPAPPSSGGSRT
Sequence of FGFR3-BAIAP2L1 Ba/F3 cells (P22607 23-806 limits assumed, change not shown): as the sequence (P22607 23-806) above
Sequence of FGFR3 (V555M) (P22607 23-806 V555M): as the sequence (P22607 23-806) above, with V533M counted along it
Sequence of FGFR4 (P22455 22-802): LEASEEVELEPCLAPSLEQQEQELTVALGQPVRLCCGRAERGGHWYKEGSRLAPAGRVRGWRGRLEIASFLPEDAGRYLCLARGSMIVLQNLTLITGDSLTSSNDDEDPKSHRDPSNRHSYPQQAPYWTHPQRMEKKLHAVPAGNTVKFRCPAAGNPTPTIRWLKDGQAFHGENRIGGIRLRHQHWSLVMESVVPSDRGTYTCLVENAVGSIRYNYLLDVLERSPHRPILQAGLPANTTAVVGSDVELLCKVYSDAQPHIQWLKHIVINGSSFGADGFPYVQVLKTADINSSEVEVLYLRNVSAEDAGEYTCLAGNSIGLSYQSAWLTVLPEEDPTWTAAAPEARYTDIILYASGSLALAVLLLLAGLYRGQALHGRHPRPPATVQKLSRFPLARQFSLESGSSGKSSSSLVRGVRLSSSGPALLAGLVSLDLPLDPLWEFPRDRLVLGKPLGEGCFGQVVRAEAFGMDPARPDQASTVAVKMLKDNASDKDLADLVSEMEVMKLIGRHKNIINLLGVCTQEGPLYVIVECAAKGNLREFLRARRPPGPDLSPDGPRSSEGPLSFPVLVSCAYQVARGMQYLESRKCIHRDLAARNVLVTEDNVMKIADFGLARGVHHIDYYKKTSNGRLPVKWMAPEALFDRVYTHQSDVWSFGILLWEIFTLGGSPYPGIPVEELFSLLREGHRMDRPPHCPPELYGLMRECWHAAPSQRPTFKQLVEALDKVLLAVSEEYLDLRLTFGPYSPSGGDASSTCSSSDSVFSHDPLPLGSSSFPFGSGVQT

With `C[C@@H](Oc1ccc2[nH]nc(-c3ccc(N4CCS(=O)(=O)CC4)nc3)c2c1)c1c(Cl)cncc1Cl` [Example 1, 4-[5-[5-[(1R)-1-(3,5-dichloro-4-pyridyl)ethoxy]-1H-indazol-3-yl]-2-pyridyl]-1,4-thiazinane 1,1-dioxide], the IC50 in assay [1] fell in the range of 1 to 20 nM; in assay [2], 100 to 300 nM; in assay [3], 1 to 20 nM; in [9], 100 to 300 nM; in assay [10], 1 to 20 nM. Besides, the Kd in assay [4], in assay [5], in assay [6], in assay [7] and in assay [8] was 1 to 20 nM throughout. In addition, the “Ba/F3 FGFR1/FGFR3 Selectivity” value in [10] is 33.
Turning to `C[C@@H](Oc1ccc2[nH]nc(-c3ccc(N4CCNCC4)nc3)c2c1)c1c(Cl)cncc1Cl` [Example 2, (R)-5-(1-(3,5-Dichloropyridin-4-yl)ethoxy)-3-(6-(piperazin-1-yl)pyridin-3-yl)-1H-indazole dihydrochloride], the IC50 is 1 to 20 nM in assay [3], 100 to 300 nM in assay [9] and 1 to 20 nM in assay [10]. Moreover, the Kd in assay [4], in [5], in assay [6], in assay [7] and in assay [8] was 1 to 20 nM in each case. Moreover, the “Ba/F3 FGFR1/FGFR3 Selectivity” value in assay [10] was 15.
As for `C[C@@H](Oc1ccc2[nH]nc(-c3ccc(N4CCN(C(=O)N5CCOCC5)CC4)nc3)c2c1)c1c(Cl)cncc1Cl` [Example 3, [4-[5-[5-[(1R)-1-(3,5-dichloro-4-pyridyl)ethoxy]-1H-indazol-3-yl]-2-pyridyl]piperazin-1-yl]-morpholino-methanone], the IC50 in assay [1] is 1 to 20 nM; in assay [2], 20 to 100 nM; in [3] it was 1 to 20 nM; in [9] it was 20 to 100 nM; in assay [10], 1 to 20 nM. The Kd in [4], in assay [5], in assay [6], in assay [7] and in assay [8] was 1 to 20 nM throughout. Moreover, in [10], the “Ba/F3 FGFR1/FGFR3 Selectivity” value was 18.
On to `C[C@@H](Oc1ccc2[nH]nc(-c3ccc(N4CCN(C(=O)N5CCN(C)CC5)CC4)nc3)c2c1)c1c(Cl)cncc1Cl` [Example 4, [4-[5-[5-[(1R)-1-(3,5-dichloro-4-pyridyl)ethoxy]-1H-indazol-3-yl]-2-pyridyl]piperazin-1-yl]-(4-methylpiperazin-1-yl)methanone], for which the IC50 in assay [1] is 1 to 20 nM; in assay [2], 20 to 100 nM; in assay [3], 1 to 20 nM; in assay [9] it was 100 to 300 nM; in assay [10], 1 to 20 nM. Besides, the Kd in assay [4], in [5], in [6], in assay [7] and in assay [8] was 1 to 20 nM each time. For the same compound, the “Ba/F3 FGFR1/FGFR3 Selectivity” value in [10] turned out to be 29.
Turning to `C[C@@H](Oc1ccc2[nH]nc(-c3cnc(N4CC5(CCN(S(C)(=O)=O)C5)C4)nc3)c2c1)c1c(Cl)cncc1Cl` [Example 157, 5-[(1R)-1-(3,5-dichloro-4-pyridyl)ethoxy]-3-[2-(7-methylsulfonyl-2,7-diazaspiro[3.4]octan-2-yl)pyrimidin-5-yl]-1H-indazole], the IC50 in assay [1] was in the range of 20 to 100 nM; in assay [3], 100 to 300 nM; in [9], 100 to 300 nM; in assay [10] it was 1 to 20 nM. Also, the Kd is 1 to 20 nM in assay [4]; 20 to 100 nM in assay [5]; 1 to 20 nM in assay [6]; 1 to 20 nM in assay [7]; 20 to 100 nM in [8]. Further, the “Ba/F3 FGFR1/FGFR3 Selectivity” value in assay [10] is reported as 7.

By Kd is commonly meant the concentration at which binding is half-saturated. The low end stands for a tighter complex, the high end for a looser complex.

(Values after US20240109865A1, “INDAZOLE COMPOUNDS AS KINASE INHIBITORS” (TYRA BIOSCIENCES, INC., priority 2020, published 2024).)
